Where two headings read alike, the source gives them in different places.
System: NICD (Notch intracellular domain) CSL-bla reporter in HeLa cells
Assay: Notch assay (CellSensor T-REx NICD CSL-bla HeLa beta-lactamase reporter; Method 1 / Method 2)
Type: cell-based
Conditions: Homo sapiens, 10 μM compound, read-out: inhibiton (%) at 10 μM
Summary of the method: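 HeLa cells carrying doxycycline-inducible NICD and a CSL-driven beta-lactamase reporter, 10^3 cells/well, were treated with compound plus doxycycline for 16-20 h at 37 °C. CCF4-AM substrate was loaded for 4 h at room temperature; background-subtracted blue (460 nm)/green (530 nm) emission ratio taken per well.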

[1] = Method 2 (40 nL of 1000× compound added to plate with Echo)
[2] = Method 1 (10× compound prepared in assay medium, added to plated cells)

With `CC[C@H](C)CN1CC2N(C(=O)OCC(C)C)O[C@H](CC3CCCCC3)C(=O)N2[C@@H](CCCCN)C1=O` (stereo partly drawn) [Compound I-40, (3R,6S)-isobutyl 6-(4-aminobutyl)-3-(cyclohexylmethyl)-8-((S)-2-methylbutyl)-4,7-dioxohexahydropyrazino[2,1-c][1,2,4]oxadiazine-1(6H)-carboxylate] the inhibition at 10 µM [1] was 124%.

For `O=C1[C@H](CO)N2C(=O)[C@@H](Cc3ccccc3)ON(C(=O)OCC3CCCCC3)C2CN1CCc1ccc(O)cc1` (stereo partly drawn) [Compound I-32, (3R,6S)-cyclohexylmethyl 3-benzyl-6-(hydroxymethyl)-8-(4-hydroxyphenethyl)-4,7-dioxohexahydropyrazino[2,1-c][1,2,4]oxadiazine-1(6H)-carboxylate], the inhibition at 10 µM [1] was 59.8%.

`CN1CCC(N2CC3N(C(=O)OCc4ccccc4)O[C@H](CC4CCCCC4)C(=O)N3[C@@H](CC3CCCCC3)C2=O)CC1` (stereo partly drawn) [Compound I-139, benzyl (3R,6S)-3,6-bis (cyclohexylmethyl)-8-(1-methylpiperidin-4-yl)-4,7-dioxohexahydropyrazino [2,1-c][1,2,4]oxadiazine-1(6H)-carboxylate] was tested, and the inhibition at 10 µM [1] was 116%.

`CC(C)CCOC(=O)N1O[C@H](Cc2ccccc2)C(=O)N2C1CN([C@@H](Cc1ccccc1)C(=O)NCCCO)C(=O)[C@@H]2Cc1ccc(O)cc1` (stereo partly drawn) [Compound I-106, isopentyl (3R,6S)-3-benzyl-6-(4-hydroxybenzyl)-8-((S)-1-((3-hydroxypropyl)amino)-1-oxo-3-phenylpropan-2-yl)-4,7-dioxohexahydropyrazino[2,1-c][1,2,4]oxadiazine-1(6H)-carboxylate] showed an inhibition at 10 µM [1] of 52%.

In the case of `CC(C)C[C@H]1ON(C(=O)OCc2ccccc2)C2CN(C3CCN(C)CC3)C(=O)[C@H](CCCCN(Cc3ccccc3)Cc3ccccc3)N2C1=O` (stereo partly drawn) [Compound I-144, benzyl (3R,6S)-6-(4-(dibenzylamino)butyl)-3-isobutyl-8-(1-methylpiperidin-4-yl)-4,7-dioxohexahydropyrazino [2,1-c][1,2,4]oxadiazine-1(6H)-carboxylate], the inhibition at 10 µM [1] was 78.1%.

In the case of `CC(C)CCNC(=O)[C@H](CC(C)C)N1CC2N(C(=O)OCCc3ccc(O)cc3)O[C@H](Cc3ccccc3)C(=O)N2[C@@H](C)C1=O` (stereo partly drawn) [Compound I-120, 4-hydroxyphenethyl (3R,6S)-3-benzyl-8-((S)-1-(isopentylamino)-4-methyl-1-oxopentan-2-yl)-6-methyl-4,7-dioxohexahydropyrazino [2,1-c][1,2,4]oxadiazine-1(6H)-carboxylate], the inhibition at 10 µM [1] was 67.1%.

Work on `CC(C)C[C@H]1ON(CCCC2CCN(S(=O)(=O)c3cccnc3)CC2)C2CN(C3CCN(C)CC3)C(=O)[C@H](CC(C)C)N2C1=O` (stereo partly drawn) [Compound I-150, (3R,6S)-3,6-diisobutyl-8-(1-methylpiperidin-4-yl)-1-(3-(1-(pyridin-3-ylsulfonyl)piperidin-4-yl)propyl)tetrahydropyrazino [2,1-c][1,2,4]oxadiazine-4,7(3H,6H)-dione] yielded an inhibition at 10 µM [1] of 69.1%.

`CC(C)CCOC(=O)N1O[C@H](Cc2ccccc2)C(=O)N2C1CN([C@@H](Cc1ccccc1)C(=O)NCCc1ccccc1)C(=O)[C@@H]2Cc1ccc(O)cc1` (stereo partly drawn) [Compound I-105, isopentyl (3R,6S)-3-benzyl-6-(4-hydroxybenzyl)-4,7-dioxo-8-((S)-1-oxo-1-(phenethylamino)-3-phenylpropan-2-yl)hexahydropyrazino[2,1-c][1,2,4]oxadiazine-1(6H)-carboxylate] was tested, and the inhibition at 10 µM [1] was 60.9%.

`CCCCCCOC(=O)N1O[C@@H](Cc2ccccc2)C(=O)N2C1CN(Cc1ccccc1)C(=O)[C@@H]2Cc1ccc(O)cc1` (stereo partly drawn) [Compound I-6, (35,6S)-hexyl 3,8-dibenzyl-6-(4-hydroxybenzyl)-4,7-dioxohexahydropyrazino[2,1-c][1,2,4]oxadiazine-1(6H)-carboxylate] showed an inhibition at 10 µM [2] of 62.1%.

`CCCC[C@@H](C(=O)NCCC(C)C)N1CC2N(C(=O)OCCc3ccc(O)cc3)O[C@H](Cc3ccccc3)C(=O)N2[C@@H](Cc2ccc(O)cc2)C1=O` (stereo partly drawn) [Compound I-109, 4-hydroxyphenethyl (3R,6S)-3-benzyl-6-(4-hydroxybenzyl)-8-((S)-1-(isopentylamino)-1-oxohexan-2-yl)-4,7-dioxohexahydropyrazino[2,1-c][1,2,4]oxadiazine-1(6H)-carboxylate] was tested, and the inhibition at 10 µM [1] was 74%.

Compound `CC(C)C[C@H]1ON(C(=O)OCC2CCCCC2)C2CN(C3CCNCC3)C(=O)[C@H](CC(C)C)N2C1=O` (stereo partly drawn) [Compound I-135, cyclohexylmethyl (3R,6S)-3,6-diisobutyl-4,7-dioxo-8-(piperidin-4-yl)hexahydropyrazino[2,1-c][1,2,4]oxadiazine-1(6H)-carboxylate] has an inhibition at 10 µM [1] of 110%.

`CC[C@H](C)OC(=O)N1O[C@H](Cc2ccccc2)C(=O)N2C1CN(CCc1cccc3ccccc13)C(=O)[C@@H]2CCCCN` (stereo partly drawn) [Compound I-33, (3R,6S)-(S)-sec-butyl 6-(4-aminobutyl)-3-benzyl-8-(2-(naphthalen-1-yl)ethyl)-4,7-dioxohexahydropyrazino[2,1-c][1,2,4]oxadiazine-1(6H)-carboxylate] gave an inhibition at 10 µM [1] of 59.6%.

In the case of `CCCCCCOC(=O)N1O[C@@H](CC(C)C)C(=O)N2C1CN(Cc1ccccc1)C(=O)[C@@H]2Cc1ccc(O)cc1` (stereo partly drawn) [Compound I-5, (3S,6S)-hexyl 8-benzyl-6-(4-hydroxybenzyl)-3-isobutyl-4,7-dioxohexahydropyrazino[2,1-c][1,2,4]oxadiazine-1(6H)-carboxylate], the inhibition at 10 µM [2] was 66.1%.

Work on `CC(C)C[C@H]1ON(C(=O)OCCc2ccc(O)cc2)C2CN([C@@H](Cc3ccccc3)C(=O)NCCc3ccccc3)C(=O)[C@H](Cc3ccc(O)cc3)N2C1=O` (stereo partly drawn) [Compound I-93, 4-hydroxyphenethyl (3R,6S)-6-(4-hydroxybenzyl)-3-isobutyl-4,7-dioxo-8-((S)-1-oxo-1-(phenethylamino)-3-phenylpropan-2-yl)hexahydropyrazino[2,1-c][1,2,4]oxadiazine-1(6H)-carboxylate] yielded an inhibition at 10 µM [1] of 76.3%.

`CCCCOC(=O)N1O[C@H](CC2CCCCC2)C(=O)N2C1CN(CCC(C)C)C(=O)[C@@H]2CCCCN` (stereo partly drawn) [Compound I-35, (3R,6S)-butyl 6-(4-aminobutyl)-3-(cyclohexylmethyl)-8-isopentyl-4,7-dioxohexahydropyrazino[2,1-c][1,2,4]oxadiazine-1(6H)-carboxylate] was tested, and the inhibition at 10 µM [1] was 54%.

Compound `CC(C)CCOC(=O)N1O[C@H](C)C(=O)N2C1CN([C@@H](Cc1ccccc1)C(=O)NCCC(N)=O)C(=O)[C@@H]2Cc1ccccc1` (stereo partly drawn) [Compound I-84, isopentyl (3R,6S)-8-((S)-1-((3-amino-3-oxopropyl)amino)-1-oxo-3-phenylpropan-2-yl)-6-benzyl-3-methyl-4,7-dioxohexahydro-pyrazino[2,1-c] [1,2,4]oxadiazine-1(6H)-carboxylate] has an inhibition at 10 µM [1] of 78.4%.

In the case of `CCCCCOC(=O)N1O[C@H](Cc2ccc(O)cc2)C(=O)N2C1CN([C@@H](Cc1ccc(O)cc1)C(=O)NCCc1ccccc1)C(=O)[C@@H]2Cc1ccc(O)cc1` (stereo partly drawn) [Compound I-118, pentyl (3R,6S)-3,6-bis(4-hydroxybenzyl)-8-((S)-3-(4-hydroxyphenyl)-1-oxo-1-(phenethylamino)propan-2-yl)-4,7-dioxohexahydropyrazino[2,1-c][1,2,4]oxadiazine-1(6H)-carboxylate], the inhibition at 10 µM [1] was 63.3%.

Work on `CC(C)C[C@H]1ON(C(=O)OCc2ccccc2)C2CN(C3CCN(C)CC3)C(=O)[C@H](CCCCNC3CN(C(=O)OC(C)(C)C)C3)N2C1=O` (stereo partly drawn) [Compound I-146, benzyl (3R,6S)-6-(4-((1-(tert-butoxycarbonyl)azetidin-3-yl)amino)butyl)-3-isobutyl-8-(1-methylpiperidin-4-yl)-4,7-dioxohexahydropyrazino[2,1-c][1,2,4]oxadiazine-1(6H)-carboxylate] yielded an inhibition at 10 µM [1] of 105%.

With `CCCCCN1CC2N(C(=O)OCC3CCCCC3)O[C@H](Cc3ccccc3)C(=O)N2[C@@H](CCCCN)C1=O` (stereo partly drawn) [Compound I-28, (3R,6S)-cyclohexylmethyl 6-(4-aminobutyl)-3-benzyl-4,7-dioxo-8-pentylhexahydropyrazino [2,1-c][1,2,4]oxadiazine-1(6H)-carboxylate] the inhibition at 10 µM [1] was 99.7%.

`COC(=O)N1O[C@H](CC2CCCCC2)C(=O)N2C1CN(CC1CCCCC1)C(=O)[C@@H]2CCCCN` (stereo partly drawn) [Compound I-36, (3R,6S)-methyl 6-(4-aminobutyl)-3,8-bis(cyclohexylmethyl)-4,7-dioxohexahydropyrazino[2,1-c][1,2,4]oxadiazine-1(6H)-carboxylate] gave an inhibition at 10 µM [1] of 52.2%.

`CC(C)CCN1CC2N(C(=O)OCc3cccc4ccccc34)O[C@@H](CC(N)=O)C(=O)N2[C@@H](CC2CCCCC2)C1=O` (stereo partly drawn) [Compound I-27, (3S,6S)-naphthalen-1-ylmethyl 3-(2-amino-2-oxoethyl)-6-(cyclohexylmethyl)-8-isopentyl-4,7-dioxohexahydropyrazino[2,1-c][1,2,4]oxadiazine-1(6H)-carboxylate] was tested, and the inhibition at 10 µM [2] was 62.9%.

Work on `CC(C)C[C@H]1C(=O)N(C2CCN(C)CC2)CC2N(C(=O)OCc3ccccc3)O[C@H](CC3CCCCC3)C(=O)N21` (stereo partly drawn) [Compound I-138, benzyl (3R,6S)-3-(cyclohexylmethyl)-6-isobutyl-8-(1-methylpiperidin-4-yl)-4,7-dioxohexahydropyrazino[2,1-c][1,2,4]oxadiazine-1(6H)-carboxylate] yielded an inhibition at 10 µM [1] of 98.2%.

In the case of `NCCCC[C@H]1C(=O)N(CC2CCCCC2)CC2N(C(=O)OCC3CCCCC3)O[C@H](Cc3ccccc3)C(=O)N21` (stereo partly drawn) [Compound I-29, (3R,6S)-cyclohexylmethyl 6-(4-aminobutyl)-3-benzyl-8-(cyclohexylmethyl)-4,7-dioxohexahydropyrazino[2,1-c][1,2,4]oxadiazine-1(6H)-carboxylate], the inhibition at 10 µM [1] was 101%.

With `CC(C)C[C@H]1ON(CCCC2CCN(S(=O)(=O)c3ccc(C#N)cc3)CC2)C2CN(C3CCN(C)CC3)C(=O)[C@H](CC(C)C)N2C1=O` (stereo partly drawn) [Compound I-152, 4-((4-(3-((3R,6S)-3,6-diisobutyl-8-(1-methylpiperidin-4-yl)-4,7-dioxohexahydro-pyrazino[2,1-c][1,2,4]oxadiazin-1(6H)-yl)propyl)piperidin-1-yl)sulfonyl)benzonitrile] the inhibition at 10 µM [1] was 93.5%.
